From patent US20080132505A1 (Glaxo Group Limited, priority 2004, published 2008) come the findings set out here.

Read-outs that look alike come from different tables or passages of the source. Bounds are passed on as bounds.

This assay concerns the target human cannabinoid CB2 receptor (Homo sapiens, UniProt P34972). Put plainly: Cannabinoid CB2 receptor agonist activity (yeast reporter assay, FDGlu fluorescence). The format is cell-based. The conditions noted are these: for Emax: read-out: efficacy value (Emax relative to HU210) at the cloned human cannabinoid CB2 receptor. The essentials:
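S. cerevisiae MMY23 expressing human CB2 with a Gpa1/Gαi3 chimeric G-protein, grown 24 h at 30 °C with agonist (1% DMSO) in selective media containing 10 mM 3-aminotriazole and FDGlu, pH 7.0. Fluorescein fluorescence (485/535 nm) fitted by four-parameter curve; Emax and EMR relative to HU210.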
In general terms: In a reporter assay the amount or activity of a reporter protein is the signal.

Setting [1] is: EC50 value at the cloned human cannabinoid CB2 receptor.
[2] abbreviates: read-out: EC50 value at the cloned human cannabinoid CB2 receptor.

Chain of human cannabinoid CB2 receptor (P34972 whole entry): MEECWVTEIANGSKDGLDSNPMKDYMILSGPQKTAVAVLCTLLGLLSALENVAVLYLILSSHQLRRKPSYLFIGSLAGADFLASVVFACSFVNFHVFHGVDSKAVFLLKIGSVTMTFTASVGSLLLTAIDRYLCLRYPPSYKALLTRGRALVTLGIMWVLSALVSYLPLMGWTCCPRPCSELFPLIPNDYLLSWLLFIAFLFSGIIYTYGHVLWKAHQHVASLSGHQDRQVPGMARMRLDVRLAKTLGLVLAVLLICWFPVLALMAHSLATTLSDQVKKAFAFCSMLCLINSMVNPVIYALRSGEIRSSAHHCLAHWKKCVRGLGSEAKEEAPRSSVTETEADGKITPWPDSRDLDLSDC

As a reminder, the EC50 is the midpoint of the concentration-response curve. The term Emax denotes the size of the effect at its maximum, as opposed to the concentration needed. In the case of `O=C(NCC1CCOCC1)c1cnc(Nc2ccc(Cl)cc2F)nc1C(F)(F)F` [Example 99, 2-(2-Fluoro-4-chlorophenylamino)-4-trifluoromethyl-pyrimidine-5-carboxylic acid (tetrahydro-pyran-4-ylmethyl)-amide], the Emax is more than 50%. The compound further came in with an EC50 under setting [1] of 300 to 1000 nM. As to `O=C(NCC1CCCCC1)c1cnc(Nc2ccc(F)cc2C(F)(F)F)nc1C(F)(F)F` [Example 100, 2-(2-Trifluoromethyl-4-fluorophenylamino)-4-trifluoromethyl-pyrimidine-5-carboxylic acid cyclohexylmethyl-amide], the Emax is more than 50%. The EC50 under setting [1] was in the range of 300 to 1000 nM. Consider `O=C(NCC1CCC1)c1cnc(Nc2ccc(F)cc2C(F)(F)F)nc1C(F)(F)F` [Example 101, 2-(2-Trifluoromethyl-4-fluorophenylamino)-4-trifluoromethyl-pyrimidine-5-carboxylic acid cyclobutylmethyl-amide], for which the Emax is more than 50%. Under setting [1], this compound displayed an EC50 of 300 to 1000 nM. For `O=C(NCC1CCC1)c1cnc(Nc2ccc(C(F)(F)F)cc2Cl)nc1C(F)(F)F` [Example 102, 2-(2-Chloro-4-trifluoromethylphenylamino)-4-trifluoromethyl-pyrimidine-5-carboxylic acid cyclobutylmethyl-amide], in that order: more than 50% and 300 to 1000 nM. In the case of `N#Cc1ccc(Nc2ncc(C(=O)NCC3CCC3)c(C(F)(F)F)n2)c(Cl)c1` [Example 103, 2-(2-Chloro-4-cyanophenylamino)-4-trifluoromethyl-pyrimidine-5-carboxylic acid cyclobutylmethyl-amide], the Emax is more than 50%. Also, the EC50 under setting [1] lay in the range of 300 to 1000 nM. For the compound `O=C(NCC1CCOCC1)c1cnc(Nc2ccc(Cl)cc2C(F)(F)F)nc1C(F)(F)F` [Example 104, 2-(2-Trifluoromethyl-4-chlorophenylamino)-4-trifluoromethyl-pyrimidine-5-carboxylic acid (tetrahydro-pyran-4-ylmethyl)-amide], the Emax was more than 50%. Also, the EC50 under setting [1] lay within 300 to 1000 nM. On to `O=C(NCC1CCC1)c1cnc(Nc2ccc(Br)cc2C(F)(F)F)nc1C(F)(F)F` [Example 105, 2-(2-Trifluoromethyl-4-bromophenylamino)-4-trifluoromethyl-pyrimidine-5-carboxylic acid cyclobutylmethyl-amide], for which the Emax is more than 50%. Also, the half-maximal effective concentration (EC50) under setting [1] was in the range of 300 to 1000 nM. For `O=C(NCC1CCCCC1)c1cnc(Nc2ccc(Br)cc2C(F)(F)F)nc1C(F)(F)F` [Example 106, 2-(2-Trifluoromethyl-4-bromophenylamino)-4-trifluoromethyl-pyrimidine-5-carboxylic acid cyclohexylmethyl-amide], the Emax was more than 50%. The same compound gave an EC50 under setting [1] of 300 to 1000 nM. Regarding `O=C(NCC1CCOCC1)c1cnc(Nc2cccc(F)c2F)nc1C(F)(F)F` [Example 107, 2-(2,3-Difluoro-phenylamino)-4-tri-fluoromethyl-pyrimidine-5-carboxylic acid (tetrahydropyran-4-ylmethyl)-amide], the Emax is more than 50%. This compound showed a 50% effective concentration (EC50) under setting [1] of 300 to 1000 nM.

Regarding `Cc1ccc(Cl)cc1Nc1ncc(C(=O)NCC2CCOCC2)c(C(F)(F)F)n1` [Example 108, 2-(5-Chloro-2-methyl-phenylamino)-4-tri-fluoromethyl-pyrimidine-5-carboxylic acid (tetrahydropyran-4-ylmethyl)-amide], the Emax was more than 50%. This compound also yielded an EC50 under setting [1] of 300 to 1000 nM. Consider `N#Cc1c(Cl)cccc1Nc1ncc(C(=O)NCC2CCOCC2)c(C(F)(F)F)n1` [Example 109, 2-(3-Chloro-2-cyano-phenylamino)-4-tri-fluoromethyl-pyrimidine-5-carboxylic acid (tetrahydropyran-4-ylmethyl)-amide], for which the Emax is more than 50%. Besides, the EC50 under setting [1] lay within 300 to 1000 nM. For `Cc1ccc(Nc2ncc(C(=O)NCC3CCOCC3)c(C(F)(F)F)n2)c(Cl)c1` [Example 110, 2-(2-Chloro-4-methyl-phenylamino)-4-tri-fluoromethyl-pyrimidine-5-carboxylic acid (tetrahydropyran-4-ylmethyl)-amide], in that order: more than 50% and 300 to 1000 nM. For `N#Cc1cc(Nc2ncc(C(=O)NCC3CCOCC3)c(C(F)(F)F)n2)ccc1Cl` [Example 111, 2-(4-Chloro-3-cyano-phenylamino)-4-tri-fluoromethyl-pyrimidine-5-carboxylic acid (tetrahydropyran-4-ylmethyl)-amide], the Emax is more than 50%. Under setting [1], this compound had an EC50 of 300 to 1000 nM. On to `Cc1cc(Cl)ccc1Nc1ncc(C(=O)NCC2CCOCC2)c(C(F)(F)F)n1` [Example 112, 2-(4-Chloro-2-methyl-phenylamino)-4-tri-fluoromethyl-pyrimidine-5-carboxylic acid (tetrahydropyran-4-ylmethyl)-amide], for which the Emax was more than 50%. Besides, under setting [1], the EC50 was 300 to 1000 nM. For `Cc1ccc(Cl)c(Nc2ncc(C(=O)NCC3CCOCC3)c(C(F)(F)F)n2)c1` [Example 113, 2-(2-Chloro-5-methyl-phenylamino)-4-tri-fluoromethyl-pyrimidine-5-carboxylic acid (tetrahydropyran-4-ylmethyl)-amide], in that order: more than 50% and 300 to 1000 nM.

In the case of `COc1cccc(Nc2ncc(C(=O)NCC3CCCCC3)c(C(F)(F)F)n2)c1` [Example 163, 2-(3-Methoxyphenylamino)-4-trifluoromethyl-pyrimidine-5-carboxylic acid cyclohexylmethyl-amide], the EC50 under setting [2] lay within 20 to 300 nM. Turning to `O=C(NCC1(O)CCCCC1)c1cnc(Nc2cccc(Cl)c2)nc1C(F)(F)F` [Example 164, 2-(3-Chlorophenylamino)-4-trifluoromethyl-pyrimidine-5-carboxylic acid (1-hydroxycyclohexylmethyl)-amide], the Emax was more than 50%. Under setting [1], this compound yielded an EC50 of 20 to 300 nM. For the compound `O=C(NCC1(O)CCCCC1)c1cnc(Nc2cccc(Br)c2)nc1C(F)(F)F` [Example 165, 2-(3-Bromophenylamino)-4-trifluoromethyl-pyrimidine-5-carboxylic acid (1-hydroxycyclohexylmethyl)-amide], the maximum response (Emax) was more than 50%. Further, the EC50 under setting [1] lay in the range of 20 to 300 nM.

For `O=C(NCC1CCCCC1)c1cnc(Nc2ccc(F)c(Cl)c2)nc1C(F)(F)F` [Example 166, 2-(3-Chloro-4-fluorophenylamino)-4-trifluoromethyl-pyrimidine-5-carboxylic acid cyclohexylmethyl-amide], the Emax is more than 50%. Further, the EC50 under setting [1] lay within 20 to 300 nM.

Take `O=C(NCC1CCCCC1)c1cnc(Nc2cccc(Cl)c2F)nc1C(F)(F)F` [Example 167, 2-(3-Chloro-2-fluorophenylamino)-4-trifluoromethyl-pyrimidine-5-carboxylic acid cyclohexylmethyl-amide]: the Emax was more than 50%. In addition, the EC50 under setting [1] lay within 20 to 300 nM. With `O=C(NCC1CCCCC1)c1cnc(Nc2cc(Cl)ccc2F)nc1C(F)(F)F` [Example 168, 2-(5-Chloro-2-fluorophenylamino)-4-trifluoromethyl-pyrimidine-5-carboxylic acid cyclohexylmethyl-amide], the Emax is more than 50%. Under setting [1], this compound yielded an EC50 of 20 to 300 nM. As to `O=C(NCC1CCCCC1)c1cnc(Nc2cc(F)cc(F)c2)nc1C(F)(F)F` [Example 169, 2-(3,5-Difluorophenylamino)-4-trifluoromethyl-pyrimidin-5-carboxylic acid cyclohexylmethyl-amide], the Emax was more than 50%. Under setting [1], the EC50 fell in the range of 20 to 300 nM. Regarding `O=C(NCC1CCCCC1)c1cnc(Nc2ccc(Cl)cc2C(F)(F)F)nc1C(F)(F)F` [Example 170, 2-(4-Chloro-2-trifluoromethylphenylamino)-4-trifluoromethyl-pyrimidine-5-carboxylic acid cyclohexylmethyl-amide], the Emax is more than 50%. Further, the EC50 under setting [1] lay in the range of 20 to 300 nM.

With `N#Cc1cccc(Nc2ncc(C(=O)NCC3CCCCC3)c(C(F)(F)F)n2)c1` [Example 171, 2-(3-Cyanophenylamino)-4-trifluoromethyl-pyrimidine-5-carboxylic acid cyclohexylmethyl-amide], the Emax was more than 50%. For the same compound, the EC50 under setting [1] lay in the range of 20 to 300 nM. Turning to `N#Cc1cccc(Nc2ncc(C(=O)NCC3CCOCC3)c(C(F)(F)F)n2)c1` [Example 172, 2-(3-Cyanophenylamino)-4-trifluoromethyl-pyrimidine-5-carboxylic acid (tetrahydropyran-4-ylmethyl)-amide], the Emax is more than 50%. In addition, the EC50 under setting [1] lay in the range of 20 to 300 nM. As to `N#Cc1cccc(Nc2ncc(C(=O)NCC3CCCC3)c(C(F)(F)F)n2)c1` [Example 173, 2-(3-Cyanophenylamino)-4-trifluoromethyl-pyrimidine-5-carboxylic acid cyclopentylmethyl-amide], the Emax was more than 50%. Under setting [1], this compound came in with an EC50 of 20 to 300 nM. Consider `N#Cc1ccc(Nc2ncc(C(=O)NCC3CCCCC3)c(C(F)(F)F)n2)cc1` [Example 174, 2-(4-Cyanophenylamino)-4-trifluoromethyl-pyrimidine-5-carboxylic acid cyclohexylmethyl-amide], for which the EC50 under setting [2] lay within 20 to 300 nM. Turning to `N#Cc1ccc(Nc2ncc(C(=O)NCC3CCOCC3)c(C(F)(F)F)n2)cc1` [Example 175, 2-(4-Cyanophenylamino)-4-trifluoromethyl-pyrimidine-5-carboxylic acid (tetrahydropyran-4-ylmethyl)-amide], the Emax was more than 50%. Under setting [1], this compound showed an EC50 of 20 to 300 nM. Regarding `COc1cc(Nc2ncc(C(=O)NCC3CCOCC3)c(C(F)(F)F)n2)cc(C(F)(F)F)c1` [Example 177, 2-(3-Methoxy-5-(trifluoromethyl)phenylamino)-4-trifluoromethyl-pyrimidine-5-carboxylic acid (tetrahydropyran-4-ylmethyl)-amide], the Emax is more than 50%. This compound also displayed an EC50 under setting [1] of 20 to 300 nM.
